Laboratory results from ChEMBL document CHEMBL1124628, “Topically active carbonic anhydrase inhibitors. 1. O-acyl derivatives of 6-hydroxybenzothiazole-2-sulfonamide” (J Med Chem, 1989).

Assays:
[1] = species on record: Oryctolagus cuniculus; test: Change in intraocular pressure in Albino rabbit when 10% of compound suspension bilaterally instilled in 3 doses of 20, 15 and 15 microL at 5 minute intervals determined by recovery rate assay; format: functional, Eye
[2] = target: T1, Carbonic anhydrase 2 (Homo sapiens, UniProt P00918)
Description: In vitro inhibition of human Carbonic Anhydrase II

[3] = species on record: Oryctolagus cuniculus; test: Change in intraocular pressure in Albino rabbit when 5% of compound suspension bilaterally instilled in 3 doses of 20, 15 and 15 microL at 5 minute intervals determined by recovery rate assay; format: functional, Eye
[4] = target: T1, Carbonic anhydrase 2; test: In vitro inhibitory activity against human Carbonic anhydrase II; settings: read-out: I50
[5] = tested on: Oryctolagus cuniculus; test: Maximum decrease in intraocular pressure in Albino rabbit during 5 hours observation period after topical instillation of 5% suspension; format: functional, Eye
[6] = species on record: Oryctolagus cuniculus; test: % change in intraocular pressure in Albino rabbit when 10% suspension bilaterally instilled in 3 divided doses of 20, 15 and 15 microL at 5 minute intervals determined by recovery rate assay; format: functional
[7] = species on record: Oryctolagus cuniculus; test: Corneal penetration rate constant (k) for excised denuded cornea of albino rabbit; format: functional
[8] = Cleavage by corneal esterase at 37 degree C and at pH 7.4; format: ADME, tissue-based, Cornea
[9] = species on record: Oryctolagus cuniculus; test: Corneal penetration rate constant (k) for excised intact cornea of albino rabbit; format: functional
[10] = In vitro susceptibility to nucleophilic attack by reduced glutathione at 37 degree C and at pH 7.4; format: ADME
[11] = tested on: Oryctolagus cuniculus; test: Maximum decrease in intraocular pressure in Albino rabbit during 5 hours observation period after topical instillation of 0.5% suspension in alpha-Chymotrypsin assay; format: functional, Eye
[12] = tested on: Oryctolagus cuniculus; test: Maximum decrease in intraocular pressure in Albino rabbit during 5 hours observation period after topical instillation of 1% suspension in alpha-Chymotrypsin assay; format: functional, Eye
[13] = species on record: Oryctolagus cuniculus; test: Change in intraocular pressure in Albino rabbit when 2% suspension of compound bilaterally instilled in a single dose of 50 microL determined by recovery rate assay; format: functional, Eye
[14] = tested on: Oryctolagus cuniculus; test: Maximum decrease in intraocular pressure in Albino rabbit during 5 hours observation period after topical instillation of 5% suspension in alpha-Chymotrypsin assay; format: functional, Eye
[15] = species on record: Oryctolagus cuniculus; test: Change in intraocular pressure in Albino rabbit when 1% suspension of compound bilaterally instilled in a single dose of 50 microL determined by recovery rate assay; format: functional, Eye
[16] = tested on: Oryctolagus cuniculus; test: Maximum decrease in intraocular pressure in Albino rabbit during 5 hours observation period after topical instillation of 0.5% suspension; format: functional, Eye
[17] = species on record: Oryctolagus cuniculus; test: Change in intraocular pressure in Albino rabbit when 2% of compound suspension instilled in a single dose of 50 microL determined by recovery rate assay
[18] = tested on: Oryctolagus cuniculus; test: Maximum decrease in intraocular pressure in Albino rabbit during 5 hours observation period after topical instillation of 1% suspension; format: functional, Eye

## CN(C)C(=O)Oc1ccc2nc(S(N)(=O)=O)sc2c1
[1]
  Change: -32%
[2]
  IC50: 1.6 nM
[3]
  Change: 2%

## CN(C)Cc1ccc(C(=O)Oc2ccc3nc(S(N)(=O)=O)sc3c2)cc1
[4]
  IC50: 4 nM

## CCOC(=O)Oc1ccc2nc(S(N)(=O)=O)sc2c1
[5]
  Pressure: -5.5 mmHg
[6]
  Change: -29%
[7]
  K: 0.0145 h⁻¹
[2]
  IC50: 6.8 nM
[8]
  half-life: 19 min
[9]
  K: 0.0402 h⁻¹

## CCCCCC(=O)Oc1ccc2nc(S(N)(=O)=O)sc2c1
[7]
  K: 0.0182 h⁻¹
[2]
  IC50: 4 nM
[8]
  half-life: 2 min
[9]
  K: 0.0152 h⁻¹

## CCOc1ccc2nc(S(N)(=O)=O)sc2c1 [ETHOXZOLAMIDE]
[10]
  Reaction: 36%

## COc1cccc(OC)c1C(=O)Oc1ccc2nc(S(N)(=O)=O)sc2c1
[2]
  IC50: 4 nM

## NS(=O)(=O)c1nc2ccc(OC(=O)c3ccccc3)cc2s1
[7]
  K: 0.0152 h⁻¹
[4]
  IC50: 8 nM
[10]
  Reaction: 50%
[1]
  Change: -25%
[8]
  half-life: 30 min
[3]
  Change: 11%
[9]
  K: 0.035 h⁻¹

## NS(=O)(=O)c1nc2ccc(OC(=O)C3CCCCC3)cc2s1
[7]
  K: 0.0175 h⁻¹
[10]
  Reaction: 50%
[1]
  Change: -34%
[11]
  Pressure: -4.6 mmHg
[12]
  Pressure: -9.8 mmHg
[2]
  IC50: 6 nM
[8]
  half-life: 2 min
[9]
  K: 0.0712 h⁻¹

## CCCCCCCC(=O)Oc1ccc2nc(S(N)(=O)=O)sc2c1
[4]
  IC50: 1.6 nM
[1]
  Change: -33%
[13]
  Change: -16%
[12]
  Pressure: -5 mmHg
[3]
  Change: -29%

## COCC(=O)Oc1ccc2nc(S(N)(=O)=O)sc2c1
[2]
  IC50: 3.5 nM

## CC(C)(C)C(=O)Oc1ccc2nc(S(N)(=O)=O)sc2c1
[14]
  Pressure: -9.2 mmHg
[10]
  Reaction: 50%
[1]
  Change: -47%
[13]
  Change: -30%
[11]
  Pressure: -6.5 mmHg
[15]
  Change: -16%
[12]
  Pressure: -8.2 mmHg
[8]
  half-life: 38 min
[3]
  Change: -41%

## CC(=O)Nc1nnc(S(N)(=O)=O)s1 [ACETAZOLAMIDE]
[10]
  Reaction: 3%

## Cn1cccc1C(=O)Oc1ccc2nc(S(N)(=O)=O)sc2c1
[1]
  Change: -12%
[2]
  IC50: 2.9 nM

## NS(=O)(=O)c1nc2ccc(OC(=O)/C=C/c3ccccc3)cc2s1
[4]
  IC50: 15 nM

## CCOP(=O)(OCC)Oc1ccc2nc(S(N)(=O)=O)sc2c1
[1]
  Change: -22%
[2]
  IC50: 1.8 nM

## CCCCCCCCCCCC(=O)Oc1ccc2nc(S(N)(=O)=O)sc2c1
[4]
  IC50: 3.1 nM
[1]
  Change: -25%

## CN(C)c1ccc(C(=O)Oc2ccc3nc(S(N)(=O)=O)sc3c2)cc1
[4]
  IC50: 60 nM
[1]
  Change: 7%

## CCCC(=O)Oc1ccc2sc(S(N)(=O)=O)nc2c1
[1]
  Change: -54%
[2]
  IC50: 4 nM

## CC(C)(C)OC(=O)Oc1ccc2nc(S(N)(=O)=O)sc2c1
[2]
  IC50: 10 nM

## CCN(CC)CC1CCC(C(=O)Oc2ccc3nc(S(N)(=O)=O)sc3c2)CC1 (configuration not stated)
[2]
  IC50: 2.8 nM

## NS(=O)(=O)c1nc2cc(O)ccc2s1
[2]
  IC50: 5 nM

## CCOC(C)(C)C(=O)Oc1ccc2nc(S(N)(=O)=O)sc2c1
[7]
  K: 0.0162 h⁻¹
[2]
  IC50: 1.2 nM
[8]
  half-life: 64 min
[9]
  K: 0.0373 h⁻¹

## CC(C)(C)C(=O)Oc1ccc2nc(S(N)(=O)=O)sc2c1N
[4]
  IC50: 25 nM

## CC(C)COC(=O)Oc1ccc2nc(S(N)(=O)=O)sc2c1
[7]
  K: 0.0212 h⁻¹
[10]
  Reaction: 50%
[1]
  Change: -46%
[16]
  Pressure: -5.7 mmHg
[17]
  Change: -22%
[2]
  IC50: 2.2 nM
[8]
  half-life: 7 min
[3]
  Change: -54%
[9]
  K: 0.0812 h⁻¹
[18]
  Pressure: -6.7 mmHg

## COC(C)(C)C(=O)Oc1ccc2nc(S(N)(=O)=O)sc2c1
[7]
  K: 0.019 h⁻¹
[2]
  IC50: 1.2 nM
[8]
  half-life: 36 min
[9]
  K: 0.0222 h⁻¹

## NS(=O)(=O)c1nc2ccc(O)cc2s1
[10]
  Reaction: 27%

## CC(C)C(=O)Oc1ccc2nc(S(N)(=O)=O)sc2c1
[7]
  K: 0.0162 h⁻¹
[14]
  Pressure: -6.2 mmHg
[10]
  Reaction: 50%
[1]
  Change: -30%
[13]
  Change: -48%
[11]
  Pressure: -9.3 mmHg
[15]
  Change: -38%
[12]
  Pressure: -6.8 mmHg
[2]
  IC50: 6.8 nM
[8]
  half-life: 9 min
[3]
  Change: -33%
[9]
  K: 0.045 h⁻¹

## NS(=O)(=O)c1nc2ccc(OC(=O)Cc3ccc(Cl)cc3)cc2s1
[4]
  IC50: 10 nM

## CN(C)OS(=O)(=O)c1ccc2nc(S(N)(=O)=O)sc2c1
[2]
  IC50: 1.2 nM

## CCCC(=O)Oc1ccc2nc(S(N)(=O)=O)sc2c1
[7]
  K: 0.0202 h⁻¹
[1]
  Change: -50%
[13]
  Change: -30%
[11]
  Pressure: -5.5 mmHg
[15]
  Change: -25%
[12]
  Pressure: -6.8 mmHg
[2]
  IC50: 3.2 nM
[8]
  half-life: 6 min
[3]
  Change: -46%
[9]
  K: 0.054 h⁻¹

## CCOCCOCCOC(C)(C)C(=O)Oc1ccc2nc(S(N)(=O)=O)sc2c1
[1]
  Change: -22%
[13]
  Change: -21%
[12]
  Pressure: -9 mmHg
[2]
  IC50: 3.2 nM

## COCCOC(C)(C)C(=O)Oc1ccc2nc(S(N)(=O)=O)sc2c1
[7]
  K: 0.015 h⁻¹
[2]
  IC50: 1.4 nM
[8]
  half-life: 72 min
[9]
  K: 0.0097 h⁻¹

## NS(=O)(=O)c1nc2ccc(OC(=O)Cc3ccccc3)cc2s1
[4]
  IC50: 30 nM
[1]
  Change: -48%
[13]
  Change: 13%
[11]
  Pressure: -2.5 mmHg
[12]
  Pressure: -6.8 mmHg
[3]
  Change: 4%

## CC(=O)/N=c1/sc(S(N)(=O)=O)nn1C [METHAZOLAMIDE]
[10]
  Reaction: 27%
[9]
  K: 0.0041 h⁻¹

## CC(C)(C)C(=O)Nc1c(OC(=O)C(C)(C)C)ccc2nc(S(N)(=O)=O)sc12
[2]
  IC50: 32 nM

## NS(=O)(=O)c1nc2ccc(OC(=O)CC3CCCC3)cc2s1
[4]
  IC50: 6 nM

## CC(=O)Oc1ccc2nc(S(N)(=O)=O)sc2c1
[7]
  K: 0.0217 h⁻¹
[1]
  Change: -47%
[13]
  Change: -35%
[15]
  Change: -10%
[12]
  Pressure: -8.8 mmHg
[2]
  IC50: 2 nM
[8]
  half-life: 22 min
[3]
  Change: -42%
[9]
  K: 0.0165 h⁻¹
